Data set [1] concerns K562, HL60 and NB4 leukemia cell lines. The data set is described as follows: Apoptosis versus intracellular ROS level in leukemia cell lines. Type of data set: cell-based. Conditions: series of concentrations. How it is done: (§1) 2×10^5 cultured cells were used for evaluating apoptosis using an ApoAlert Annexin V-FITC Apoptosis Kit (BD Biosciences). Cells were washed once by PBS, resuspended in 200 μl Annexin-V binding buffer, and then stained with Annexin V-FITC 5 μl, PI 10 μl for 15 min at room temperature in the dark. Cells were subsequently analyzed by flow cytometry.
The intracellular generation of reactive oxygen species (ROS) was measured using of the oxidation-sensitive fluorescent dye 2,7-dichlorofluorescin diacetate (DCFH-DA) (Molecular Probes). After 3 h exposure of fenretinide, 2×10^5 cells were harvested and washed once with PBS, then loaded with 1 ml PBS containing 10 μM of DCFH-DA. The cells were then incubated at 37° C. for 30 min and the fluorescence intensity was measured at 530 nm.
Fenretinide induces ROS-dependent apoptosis is the common feature in a variety of tumors (Sun et al., 1999). Here, we extensively explored the relationship between intracellular ROS levels and apoptosis outcomes induced by fenretinide in a panel of leukemia cell lines, including K562, HL60 and NB4. The intracellular ROS levels in leukemic cells were evaluated by DCFH-DA staining, and apoptosis of leukemic cells induced by fenretinide treatment with a series of concentrations was examined through annexin-V FITC and 7AAD double staining.

Data set [2] relates to HL60 cells. The data set is described as follows: Annexin V apoptosis assay in proliferating and serum-deprived quiescent HL60 cells. Conditions: 24 h. Type of data set: cell-based. As for the experimental part:
HL60 cells were cultured in RPMI 1640 supplemented (i) with or (ii) without 10% fetal bovine serum to obtain proliferating and quiescent leukemia cells respectively. Serum-deprived quiescent leukemic cells and proliferating leukemic cells were then cultured in media containing 0.5% FBS, and treated with 1 μM and 2.5 μM fenretinide, and also with chemotherapeutics as controls, 20 μM idarubicin (IDA) and 5 μM cytarabine (Ara-C).
as §1
To examine the effects of fenretinide on proliferating and quiescent leukemia cells, HL60 cells were chosen as serum deprived quiescent leukemic cell model obtained when incubated in RPMI 1640 without serum for 48 h, with G0/G1 phase cells (being in quiescent state) accounting up to 59.9%. Serum-deprived quiescent leukemic cells and proliferating leukemic cells were then cultured in media containing 0.5% FBS, and treated with 1 μM and 2.5 μM fenretinide, and also with chemotherapeutics as controls, 20 μM idarubicin (IDA) and 5 μM cytarabine (Ara-C). […] Fenretinide induces intracellular production of ROS, lowers mitochondrial transmembrane potential (MTP), and eventually leads to apoptosis in a variety of malignancies. We measured MTP induced by fenretinide in proliferating and quiescent HL60 cells, as examined through rhodamine 123 and propidium iodide staining and followed by flow cytometry analysis. […] We further measured intracellular ROS abundance induced by fenretinide. […] After incubation with 1 μM and 2.5 μM fenretinide for 3 h, the ROS level of proliferating cells increased by 1.77 and 2.6 fold, respectively.

Data set [3] deals with U937. The data set can be described thus: Growth inhibition and combination index in AML cell line U937. Type of data set: cell-based. Conditions: U937, single agent. As for the experimental part: The combination Index (CI) was used to test the combination effect of fenretinide and Ara-C on growth inhibition in AML cell line U937. The CI was calculated according to the classic isobologram equation: CI=d1/D1+d2/D2. In this equation, D1 and D2 represent the doses of drug 1 and drug 2 alone, required to produce x % effect, and d1 and d2 are the doses of drugs 1 and 2 in combination required to produce the same effect. And CI<1, CI>1 and CI=1 represent the synergism, […], respectively.

The subject of data set [4] is normal hematopoietic stem cells (HSC). The data set is described as follows: Apoptosis/toxicity in normal hematopoietic stem cells. The class given is cell-based, human. Conditions: representative specimen. The source says:
(§2) Fresh bone marrow (BM) cells were obtained from 38 patients with CML and 5 non-leukemic donors, 25 AML, 17 ALL, and 8 normal specimens with informed consent according to the Declaration of Helsinki. Approval was obtained from Institutional Review Board at the School of Medicine in Shanghai Jiao Tong University. BM mononuclear cells were isolated by Ficoll density gradient centrifugation (Shanghai Second Reagent Factory, Shanghai, China). CD34^+ Cell were selected using EasySep® Human CD34 Positive Selection kit (Stem Cell Technologies, Vancouver, BC, Canada) according to the manufacturer's instructions. The purity of CD34 cells ranged between 92 and 98% in all samples detennined by flow cytometry. The CD34^+ cells were cultured in a serum-free medium (StemPro 34; Gibco BRL, Gaithersburg, Md.) supplemented with growth factors (PeproTech, London, United Kingdom) (20). The growth factors consisted of GM-CSF (200 pg/mL), G-CSF (1 ng/mL); SCF (200 pg/mL); LIF (50 pg/mL), MIP-1α (200 pg/mL) and IL-6 (1 ng/mL).
Primitive AML and CML subpopulations (CD34^+ cells) were identified using CD34-PE in combination with CD38-APC, and followed by double-labeling with 7AAD and Annexin V antibodies for apoptosis assessment. […] Subsequently, the samples were incubated at room temperature for 15 minutes and analyzed by flow cytometry. […]

Data set [5] deals with CD34+CD38− CML stem cells (LSC). The data set can be described thus: Apoptosis (Annexin V/7AAD, FACS) of CML stem cells. The class given is cell-based, human.
Text: as §2
Primitive AML and CML subpopulations (CD34^+ cells) were identified using CD34-PE in combination with CD38-APC, and followed by double-labeling with 7AAD and Annexin V antibodies for apoptosis assessment. The CD34^+ cells were first stained with antibodies against the surface markers CD34-PE and CD38-APC (Beckman Coulter, Fullerton, Calif.) and incubated at room temperature for 15 minutes. Cells were then washed with cold PBS and resuspended in 200 μL annexin V 1×binding buffer (10 mM HEPES/NaOH, pH 7.4, 140 mM NaCl, 2.5 mM CaCl2), 5 μL AnnexinV-FITC (BD Phanningen, San Diego, Calif.) and 7-aminoactinomycin (7-AAD, 0.25 mg/mL) (Molecular Probes, Eugene, Oreg.). Subsequently, the samples were incubated at room temperature for 15 minutes and analyzed by flow cytometry.
It would be of significance to find out the subpopulations specifically targeted by fenretinide. We divided the CML patient specimens into mononuclear cells and CD34^+ cells. The CD34^+ CML cells are primitive cells including CML stem and progenitor cells. Upon treated with fenretinide, CD34^+ CML cells were further subdivided into CD34^+CD38^− enriched with CML stem cells and CD34^+CD38^+ with CML progenitor cells. After gating on primitive CML subfractions, 7AAD and Annexin V antibodies were utilized for apoptosis assessment by FACS. […] The difference of apoptosis rates between CD34^+CD38^+ and CD34^+CD38^− cells was significant (p<0.001). The effects of the fenretinide exposures on the leukemia stem cells (LSC) and normal hematopoietic stem cells (HSC) in the CD34^+CD38^− cells were shown in a representative specimen (FIG. 3B). The specimens in 5 CML patients had the similar effects on the LSC and in 5 non-leukemic donors had the similar patterns as that of nonnal HSC.

Turning to `CC1=C(/C=C/C(C)=C/C=C/C(C)=C/C(=O)Nc2ccc(O)cc2)C(C)(C)CCC1` [fenretinide, N-(4-hydroxyphenyl)retinamide], the “susceptibility to fenretinide-induced apoptosis versus level of intracellular ROS” value in data set [1] is “positively correlated”. For the same compound, the “percentage of apoptotic cells” value in data set [2] (proliferating HL60 cells, 1 μM fenretinide) is 11.8%; in data set [2] (proliferating HL60 cells, 2.5 μM fenretinide) it was 36.8%; in data set [2] (serum-deprived quiescent HL60 cells, 1 μM fenretinide), 39.5%; in data set [2] (serum-deprived quiescent HL60 cells, 2.5 μM fenretinide), 52.7%. The “dose alone required for growth inhibition rate of 65.47%” value in data set [3] amounted to 2.72 µM. For the same compound, the “change in the cell proportion of normal HSC” value in data set [4] is 5.36%. For the same compound, in data set [4] (fenretinide alone or co-treatment with imatinib), the “apoptosis in normal HSC” value came out at 19.08%. Moreover, the “apoptosis of CD34+CD38− cells” value in data set [5] (2 μM fenretinide) is listed as 60.58%±2.76%; in data set [5] (4 μM fenretinide) it was 63.75%±8.49%; in data set [5] (6 μM fenretinide) it was 62.83%±9.72%. Further, in data set [5] (representative specimen), the “reduction of LSC in the CD34+CD38− cells” value is recorded as 80.3%. Further, the “apoptosis in the LSC (CML stem cells)” value in data set [5] (representative specimen, fenretinide alone or co-treatment with imatinib) is 53.3%.

For the origin of these results see patent publication US8088822B2, “Use of fenretinide or bioactive derivatives thereof and pharmaceutical compositions comprising the same” (priority 2008, dated 2012).
